Like-named read-outs stand apart in the source and are kept apart here.
Biological target: T1, thymidine phosphorylase/PD-ECGF (E. coli) (Escherichia coli, UniProt P07650)
T1 construct: purchased
Experiment: Thymidine phosphorylase inhibition assay (absorbance at 290 nm)
Type: biochemical
Conditions: for IC50: Table 1, triplicate; for thymidine phosphorylase inhibition, result in words: compared with standard 7-Deazaxanthine
Description: Since human TP is not easy to obtain, we used commercially available recombinant E. coli TP. The primary sequence of TP is frequently preserved throughout evolution as mammalian TP is reported to share 39% sequence resemblance with the TP of E. coli. The mammalian enzyme also shared up to 70% resemblance with the active site residues, and three-dimensional structure of E. coli TP enzyme. The thymidine phosphorylase/PD-ECGF (E. coli) activity was determined by measuring the absorbance at 290 nm spectrophotometrically. The method was described in [50, 51]. In brief, the total reaction mixture of 200 µL contained 145 µL of potassium phosphate buffer (pH 7.4), 30 µL of enzyme (human and E. coli) at concentration 0.05 and 0.002 U, respectively, were incubated with 5 µL of test materials for 10 min at 25 °C in a microplate reader. After incubation, a pre-read at 290 nm was taken to deduce the absorbance of substrate particles. The substrate (20 µL, 1.5 mM), dissolved in potassium phosphate buffer, was immediately added to the plate and continuously read after 10, 20, and 30 min in a microplate reader (SpectraMax, Molecular Devices, CA, USA). All assays were performed in triplicate.
Reactions for above mentioned biological activities were carried out in triplicate. Results were then processed using SoftMax Pro 4.8 software (Molecular Devices, San Jose, CA, USA) and then by Microsoft Excel. The percent inhibition for above mentioned biological activities was calculated by following formula:Percent Inhibition = 100 − (ODtest compound/ODcontrol) × 100(1)

T1 sequence (P07650 whole entry): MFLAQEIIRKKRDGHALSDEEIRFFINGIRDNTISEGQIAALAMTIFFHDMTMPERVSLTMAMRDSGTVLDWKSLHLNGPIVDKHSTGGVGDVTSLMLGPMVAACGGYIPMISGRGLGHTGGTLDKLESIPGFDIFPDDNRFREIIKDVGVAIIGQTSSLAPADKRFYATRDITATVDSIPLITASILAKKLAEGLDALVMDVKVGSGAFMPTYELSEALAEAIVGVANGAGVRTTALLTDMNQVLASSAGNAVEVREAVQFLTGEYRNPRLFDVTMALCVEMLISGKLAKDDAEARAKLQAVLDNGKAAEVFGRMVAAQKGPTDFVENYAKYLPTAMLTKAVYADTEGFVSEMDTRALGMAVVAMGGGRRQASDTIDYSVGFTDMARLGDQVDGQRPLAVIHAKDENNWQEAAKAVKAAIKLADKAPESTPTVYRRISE

Row | SMILES | IC50 (read-out: IC50 (µM ± SEM)) [µM] | thymidine phosphorylase inhibition, result in words | IC50 (read-out: IC50 (mM ± SEM)) [µM]
1 | Fc1ccccc1-c1csc2nnc(-c3cnc4ccccc4n3)n12 [Compound 1, 5-(2-flourophenyl)-3(Quinoxalin-2yl)thiazolo[2,3-c][1,2,4]triazole] | 13.6 ± 0.4 | outstanding inhibition | 
2 | Fc1cccc(-c2csc3nnc(-c4cnc5ccccc5n4)n23)c1 [Compound 2, 5-(3-flourophenyl)-3(Quinoxalin-2yl)thiazolo[2,3-c][1,2,4]triazole] | 26.1 ± 0.7 | outstanding inhibition | 
3 | Fc1ccc(-c2csc3nnc(-c4cnc5ccccc5n4)n23)cc1 [Compound 3, 5-(4-flourophenyl)-3(Quinoxalin-2yl)thiazolo[2,3-c][1,2,4]triazole] | 18.1 ± 0.5 | outstanding inhibition | 
4 | Clc1ccccc1-c1csc2nnc(-c3cnc4ccccc4n3)n12 [Compound 4, 5-(2-chlorophenyl)-3(Quinoxalin-2yl)thiazolo[2,3-c][1,2,4]triazole] | 27.4 ± 0.6 | outstanding inhibition | 
5 | Clc1cccc(-c2csc3nnc(-c4cnc5ccccc5n4)n23)c1 [Compound 5, 5-(3-chlorophenyl)-3(Quinoxalin-2yl)thiazolo[2,3-c][1,2,4]triazole] | 33.4 ± 0.8 | outstanding inhibition | 
6 | Clc1ccc(-c2csc3nnc(-c4cnc5ccccc5n4)n23)cc1 [Compound 6, 5-(4-chlorophenyl)-3(Quinoxalin-2yl)thiazolo[2,3-c][1,2,4]triazole] | 24.4 ± 0.6 | outstanding inhibition | 
7 | O=[N+]([O-])c1ccccc1-c1csc2nnc(-c3cnc4ccccc4n3)n12 [Compound 7, 5-(2-nitrophenyl)-3(Quinoxalin-2yl)thiazolo[2,3-c][1,2,4]triazole] | 34.7 ± 0.8 | outstanding inhibition | 
8 | O=[N+]([O-])c1ccc(-c2csc3nnc(-c4cnc5ccccc5n4)n23)cc1 [Compound 8, 5-(4-nitrophenyl)-3(Quinoxalin-2yl)thiazolo[2,3-c][1,2,4]triazole] | 47.5 ± 0.9 | moderate inhibition | 
9 | Cc1ccccc1-c1csc2nnc(-c3cnc4ccccc4n3)n12 [Compound 9, 3-(quinoxalin-2-yl)-5-o-tolylthiazolo[2,3-c][1,2,4]triazole] | 56.4 ± 1.2 | moderate inhibition | 
10 | Cc1cccc(-c2csc3nnc(-c4cnc5ccccc5n4)n23)c1 [Compound 10, 3-(quinoxalin-2-yl)-5-m-tolylthiazolo[2,3-c][1,2,4]triazole] |  | inactive | 
11 | Cc1ccc(-c2csc3nnc(-c4cnc5ccccc5n4)n23)cc1 [Compound 11, 3-(quinoxalin-2-yl)-5-p-tolylthiazolo[2,3-c][1,2,4]triazole] |  | inactive | 
12 | Oc1cccc(-c2csc3nnc(-c4cnc5ccccc5n4)n23)c1 [Compound 12, 3-(3-(quinoxalin-2-yl)thiazolo[2,3-c][1,2,4]triazol-5-yl)phenol] | 33.2 ± 0.75 | outstanding inhibition | 
13 | Oc1ccc(-c2csc3nnc(-c4cnc5ccccc5n4)n23)cc1 [Compound 13, 4-(3-(quinoxalin-2-yl)thiazolo[2,3-c][1,2,4]triazol-5-yl)phenol] | 18.3 ± 0.55 | outstanding inhibition | 
14 | Oc1ccc(-c2csc3nnc(-c4cnc5ccccc5n4)n23)c(O)c1 [Compound 14, 4-(3-(quinoxalin-2-yl)thiazolo[2,3-c][1,2,4]triazol-5-yl)benzene-1,3-diol] |  | outstanding inhibition | 13.2 ± 0.4
15 | Oc1ccc(O)c(-c2csc3nnc(-c4cnc5ccccc5n4)n23)c1 [Compound 15, 2-(3-(quinoxalin-2-yl)thiazolo[2,3-c][1,2,4]triazol-5-yl)benzene-1,4-diol] |  | outstanding inhibition | 15.2 ± 0.5
16 | Oc1ccc(-c2csc3nnc(-c4cnc5ccccc5n4)n23)cc1O [Compound 16, 4-(3-(quinoxalin-2-yl)thiazolo[2,3-c][1,2,4]triazol-5-yl)benzene-1,2-diol] |  | outstanding inhibition | 3.5 ± 0.2
17 | COc1ccc(-c2csc3nnc(-c4cnc5ccccc5n4)n23)c(O)c1 [Compound 17, 5-methoxy-2-(3-(quinoxalin-2-yl)thiazolo[2,3-c][1,2,4]triazol-5-yl)phenol] |  | outstanding inhibition | 24.2 ± 0.7
18 | COc1ccc(-c2csc3nnc(-c4cnc5ccccc5n4)n23)cc1O [Compound 18, 2-methoxy-5-(3-(quinoxalin-2-yl)thiazolo[2,3-c][1,2,4]triazol-5-yl)phenol] |  | outstanding inhibition | 16.9 ± 0.6
19 | COc1cccc(-c2csc3nnc(-c4cnc5ccccc5n4)n23)c1 [Compound 19, 5-(3-methoxyphenyl)-3-(quinoxalin-2-yl)thiazolo[2,3-c][1,2,4]triazole] |  | inactive | 
20 | COc1ccc(-c2csc3nnc(-c4cnc5ccccc5n4)n23)cc1 [Compound 20, 5-(4-methoxyphenyl)-3-(quinoxalin-2-yl)thiazolo[2,3-c][1,2,4]triazole] |  | inactive | 
21 | COc1ccc(O)c(-c2csc3nnc(-c4cnc5ccccc5n4)n23)c1 [Compound 21, 4-methoxy-2-(3-(quinoxalin-2-yl)thiazolo[2,3-c][1,2,4]triazol-5-yl)phenol] |  | outstanding inhibition | 26.2 ± 0.5
22 | c1cncc(-c2csc3nnc(-c4cnc5ccccc5n4)n23)c1 [Compound 22, 5-(pyridin-3-yl)-3-(quinoxalin-2-yl)thiazolo[2,3-c][1,2,4]triazole] |  | inactive | 
23 | c1ccc2nc(-c3nnc4scc(-c5ccncc5)n34)cnc2c1 [Compound 23, 5-(pyridin-4-yl)-3-(quinoxalin-2-yl)thiazolo[2,3-c][1,2,4]triazole] |  | inactive | 
24 | Oc1ccccc1-c1csc2nnc(-c3cnc4ccccc4n3)n12 [Compound 24, 2-(3-(quinoxalin-2-yl)thiazolo[2,3-c][1,2,4]triazol-5-yl)phenol] |  | outstanding inhibition | 13.1 ± 0.3
25 | Oc1cccc(-c2csc3nnc(-c4cnc5ccccc5n4)n23)c1O [Compound 25, 3-(3-(quinoxalin-2-yl)thiazolo[2,3-c][1,2,4]triazol-5-yl)benzene-1,2-diol] |  |  | 3.2 ± 0.1
